From PubChem BioAssay (NCI)
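Briefly, cells in 96-well plates were exposed to five compound concentrations for 48 h, and endpoints were estimated by linear interpolation. GI50: concentration for 50% inhibition of growth. TGI is the concentration that stops growth completely.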

Columns and labels:
Test in all cases: inhibition of tumour cell growth, NCI panel, 48 h
[1] = tested on: 786-0 renal
[2] = tested on: A498 renal
[3] = tested on: A549 NSCLC
[4] = tested on: ACHN renal
[5] = tested on: BT-549 breast
[6] = tested on: CAKI-1 renal
[7] = tested on: CCRF-CEM leukemia
[8] = tested on: COLO 205 colon
[9] = tested on: DU-145 prostate
[10] = tested on: EKVX NSCLC
[11] = tested on: HCC-2998 colon
[12] = tested on: HCT-116 colon
[13] = tested on: HCT-15 colon
[14] = tested on: HL-60(TB) leukemia
[15] = tested on: HOP-62 NSCLC
[16] = tested on: HOP-92 NSCLC
[17] = tested on: HS 578T breast
[18] = tested on: HT29 colon
[19] = tested on: IGROV1 ovarian
[20] = tested on: K-562 leukemia
[21] = tested on: LOX IMVI melanoma
[22] = tested on: M14 melanoma
[23] = tested on: MALME-3M melanoma
[24] = tested on: MCF7 breast
[25] = tested on: MDA-MB-231 breast
[26] = tested on: MDA-MB-435
[27] = tested on: MOLT-4 leukemia
[28] = tested on: NCI-H226 lung
[29] = tested on: NCI-H23 lung
[30] = tested on: NCI-H460 lung
[31] = tested on: NCI-H522 lung
[32] = tested on: NCI/ADR-RES ovarian
[33] = tested on: OVCAR-3 ovarian
[34] = tested on: OVCAR-4 ovarian
[35] = tested on: OVCAR-5 ovarian
[36] = tested on: OVCAR-8 ovarian
[37] = tested on: PC-3 prostate
[38] = tested on: RPMI-8226 leukemia
[39] = tested on: RXF 393 renal
[40] = tested on: SF-295 CNS
[41] = tested on: SF-539 CNS
[42] = tested on: SK-MEL-2 melanoma
[43] = tested on: SK-MEL-28 melanoma
[44] = tested on: SK-MEL-5 melanoma
[45] = tested on: SK-OV-3 ovarian
[46] = tested on: SN12C renal
[47] = tested on: SNB-19 CNS
[48] = tested on: SNB-75 CNS
[49] = tested on: SR leukemia
[50] = tested on: T-47D breast
[51] = tested on: TK-10 renal
[52] = tested on: U251 CNS
[53] = tested on: UACC-257 melanoma
[54] = tested on: UACC-62 melanoma
[55] = tested on: UO-31 renal

## Cc1cc(O)c(C2=NN(c3ccc(S(N)(=O)=O)cc3)C(c3ccccc3Cl)C2)cc1Cl (stereo not given)
[1]
  GI50: 2.25 µM
  TGI: 4.52 µM
[2]
  GI50: 5.01 µM
  TGI: 20.5 µM
[3]
  GI50: 3.82 µM
  TGI: 19.3 µM
[4]
  GI50: 3.34 µM
  TGI: 11 µM
[5]
  GI50: 2.16 µM
  TGI: 4.74 µM
[6]
  GI50: 1.78 µM
  TGI: 3.99 µM
[7]
  GI50: 4.81 µM
  TGI: > 100 µM
[8]
  GI50: 1.81 µM
  TGI: 3.31 µM
[9]
  GI50: 2.01 µM
  TGI: 3.85 µM
[10]
  GI50: 1.95 µM
  TGI: 4.6 µM
[11]
  GI50: 2.1 µM
  TGI: 3.91 µM
[12]
  GI50: 1.76 µM
  TGI: 3.15 µM
[13]
  GI50: 3.69 µM
  TGI: 16.6 µM
[14]
  GI50: 3.44 µM
  TGI: > 100 µM
[15]
  GI50: 2.03 µM
  TGI: 4.16 µM
[16]
  GI50: 1.94 µM
  TGI: 6.32 µM
[17]
  GI50: 3.28 µM
  TGI: > 100 µM
[18]
  GI50: 1.92 µM
  TGI: 3.63 µM
[19]
  GI50: 2.58 µM
  TGI: 14 µM
[20]
  GI50: 3.26 µM
  TGI: > 100 µM
[21]
  GI50: 1.78 µM
  TGI: 3.21 µM
[22]
  GI50: 1.85 µM
  TGI: 3.43 µM
[23]
  GI50: 2.62 µM
  TGI: 6.46 µM
[24]
  GI50: 1.75 µM
  TGI: 3.33 µM
[25]
  GI50: 2.14 µM
  TGI: 4.52 µM
[26]
  GI50: 1.85 µM
  TGI: 3.92 µM
[27]
  GI50: 4.04 µM
  TGI: > 100 µM
[28]
  GI50: 3.02 µM
  TGI: 9.44 µM
[29]
  GI50: 1.79 µM
  TGI: 3.58 µM
[30]
  GI50: 2.16 µM
  TGI: 4.21 µM
[31]
  GI50: 1.89 µM
  TGI: 3.97 µM
[32]
  GI50: 2.7 µM
  TGI: 6.85 µM
[33]
  GI50: 1.89 µM
  TGI: 3.58 µM
[34]
  GI50: 2.73 µM
  TGI: 8.48 µM
[35]
  GI50: 1.74 µM
  TGI: 3.3 µM
[36]
  GI50: 2.94 µM
  TGI: 11.2 µM
[37]
  GI50: 1.58 µM
  TGI: 3.32 µM
[38]
  GI50: 2.98 µM
  TGI: 8.35 µM
[39]
  GI50: 3.09 µM
  TGI: 8.22 µM
[40]
  GI50: 1.59 µM
  TGI: 3.18 µM
[41]
  GI50: 1.79 µM
  TGI: 3.25 µM
[42]
  GI50: 11.9 µM
  TGI: 31 µM
[43]
  GI50: 3.39 µM
  TGI: 12.3 µM
[44]
  GI50: 3.85 µM
  TGI: 12.3 µM
[45]
  GI50: 3.63 µM
  TGI: 10.4 µM
[46]
  GI50: 2.55 µM
  TGI: 6.32 µM
[47]
  GI50: 3.54 µM
  TGI: 16.3 µM
[48]
  GI50: 2.23 µM
  TGI: 8.83 µM
[49]
  GI50: 2.97 µM
  TGI: > 100 µM
[50]
  GI50: 2.81 µM
  TGI: 10.3 µM
[51]
  GI50: 2.64 µM
  TGI: 5.86 µM
[52]
  GI50: 2.25 µM
  TGI: 5.02 µM
[53]
  GI50: 11.8 µM
  TGI: 79.6 µM
[54]
  GI50: 3.71 µM
  TGI: 14.4 µM
[55]
  GI50: 2.66 µM
  TGI: 16.2 µM
